According to paper PMC12446003, “Pharmacological characterization of linaprazan glurate (X842), a novel potassium-competitive acid blocker, in vitro and in vivo” (Frontiers in Pharmacology, 2025):
Like-named read-outs stand apart in the source and are kept apart here.

Assays:
[1] = Pharmacokinetic assessment of X842 in rats (IV, single oral, repeated oral); type: in vivo, Sprague-Dawley rats; settings: Sprague-Dawley, rat, plasma; for AUC(0-t): read-out: AUC(0–24h); for half-life: read-out: t1/2 (converted)
Description: Male and female Sprague-Dawley rats weighing approximately 150 g were housed individually with a 12-h light/dark cycle. Food and water were provided ad libitum, except during overnight fasting (10–16 h) prior to oral drug administration, as described previously ([Kotegawa et al., 1998]; [Kotegawa et al., 2002]). To investigate the absorption kinetics of X842 (prodrug) and linaprazan (metabolite, parent drug) in rats after oral and intravenous administration of X842, X842 were dissolved in 5% Solutol HS15/45% ethanol/10% PEG400/40% saline, and methane sulfonic acid was used to adjust to pH 3, yielding solutions with concentrations of 0.6 mg/mL, 2.4 mg/mL, and 9.6 mg/mL for oral administration. For intravenous (IV) injection, a drug solution (0.6 mg/mL) was prepared and filtered through a 0.22-μm filter. Blood samples were collected via the jugular vein of conscious rats (without intubation, narcotics, or antibiotics) prior to dosing and at 0.083, 0.25, 0.5, 1, 2, 4, 6, 8, and 24 h after dosing. Blood samples were placed into tubes containing sodium heparin and centrifuged at 3,500 rpm for 10 min at 4 °C. Following centrifugation, the plasma was transferred to clean tubes and stored at −80 °C until further analysis. All animals were euthanized by carbon dioxide (CO2) inhalation after the final blood sample collection.
(§1) Pharmacokinetic assessments were conducted by Shanghai Medicilon Inc. Using C18 solid-phase extraction (Shimadzu UFLC-20A, ACE 3, C18, 3.0 µm, 150 × 4.6 mm; Shimadzu, Japan) with the following conditions: mobile phase A: 1 M ammonium acetate in water, mobile phase B: 100% acetonitrile; gradient 0–5 min: 100% A, 5–30 min: 85% A, 35–63 min: 75% A, 63–65 min: 55% A, 65–70 min: 0% A, 72–87 min: 100% A; flow rate 0.7 mL/min; column temperature 30 °C ([Weidof and Covey, 1992]). […] Bioavailability was calculated as F (%) = (Doseiv × AUCpo(0–24h)) ÷ (Dosepo × AUCiv (0–24h)) × 100%, where “po” represents oral administration and “iv” represents intravenous administration.

[2] = Pharmacokinetic assessment of X842 in dogs (IV, single oral, repeated oral); type: in vivo; settings: beagle, dog, plasma, analyte as labelled; for half-life at 1 day: read-out: t1/2 Day 1 (converted); for half-life at 7 day: read-out: t1/2 Day 7 (converted); for half-life: read-out: t1/2 (converted)
Description: as §1
Male and female Beagle dogs weighing around 9 kg were arbitrarily selected for testing. Food and water were provided ad libitum, except during overnight fasting (15–16 h) prior to oral drug administration ([Adebowale et al., 2002]). X842 were dissolved in the PEG400/ethanol/Solutol/water mixture (40:10:5:45% v/v) and methane sulfonic acid was used to adjust to pH 3, yielding solutions with concentrations of 0.3 mg/mL, 1.2 mg/mL, and 4.8 mg/mL for oral administration. There were four rounds of drug administration. One week was required between the rounds of testing according to the conditions for of animal welfare maintenance. For IV injection, a drug solution with a concentration of 0.3 mg/mL was prepared and filtered through a 0.22-μm filter. Blood samples were collected via the jugular vein using the same procedures as were used for the rat experiments. Following centrifugation, the plasma was transferred to clean tubes and stored at −80 °C until further analysis. All animals were euthanized by phenobarbital injection after the final blood sample collection. Pharmacokinetic assessments were conducted as described in 2.2.1.

[3] = female, iv, 0.6 mg/kg, female rats, intravenous X842, plasma analyte as labelled
[4] = female, po, 0.6 mg/kg, female rats, single oral X842 0.6 mg/kg, analyte as labelled
[5] = female, po, 2.4 mg/kg, female rats, single oral X842 2.4 mg/kg, analyte as labelled
[6] = female, po, 9.6 mg/kg, female rats, single oral X842 9.6 mg/kg, analyte as labelled
[7] = male, iv, 0.6 mg/kg, male rats, intravenous X842, plasma analyte as labelled
[8] = male, po, 0.6 mg/kg, male rats, single oral X842 0.6 mg/kg, analyte as labelled
[9] = male, po, 2.4 mg/kg, male rats, single oral X842 2.4 mg/kg, analyte as labelled
[10] = male, po, 9.6 mg/kg, male rats, single oral X842 9.6 mg/kg, analyte as labelled
[11] = 1.2 mg/kg, female dogs, repeat oral X842, Day 1
[12] = 1.2 mg/kg, female dogs, repeat oral X842, Day 7
[13] = female dogs, intravenous X842 0.3 mg/kg
[14] = female dogs, single oral X842 0.3 mg/kg
[15] = female dogs, single oral X842 1.2 mg/kg
[16] = female dogs, single oral X842 4.8 mg/kg
[17] = male dogs, intravenous X842 0.3 mg/kg
[18] = male dogs, single oral X842 0.3 mg/kg
[19] = male dogs, single oral X842 1.2 mg/kg
[20] = male dogs, single oral X842 4.8 mg/kg

Compound: Cc1cccc(C)c1CNc1cc(C(=O)NCCO)cn2c(C)c(C)nc12 [linaprazan]
- Cmax [1, 3]: 80.5 ± 17.7 ng/mL
- AUC(0-t) [1, 3]: 133 ± 11.1 ng·h/mL
- half-life [1, 3]: 2 ± 0.4 h
- Cmax [1, 4]: 13.5 ± 5.8 ng/mL
- AUC(0-t) [1, 4]: 67.6 ± 23.7 ng·h/mL
- half-life [1, 4]: 3.7 ± 1.6 h
- Cmax [1, 5]: 72.5 ± 5.6 ng/mL
- AUC(0-t) [1, 5]: 382 ± 44.9 ng·h/mL
- half-life [1, 5]: 2.7 ± 0.4 h
- Cmax [1, 6]: 336 ± 69.4 ng/mL
- AUC(0-t) [1, 6]: 3020 ng·h/mL
- half-life [1, 6]: 2.6 ± 0.1 h
- Cmax [1, 7]: 114 ± 17 ng/mL
- half-life ([1]; male, iv, 0.6 mg/kg, male rats, intravenous X842, plasma analyte as labelled (prodrug X842 / parent linaprazan)): 1.4 ± 0.1 h
- AUC(0-t) [1, 7]: 114 ± 7.1 ng·h/mL
- Cmax [1, 8]: 6.2 ± 1.7 ng/mL
- AUC(0-t) [1, 8]: 22.1 ± 9.9 ng·h/mL
- half-life [1, 8]: 2.2 ± 1 h
- Cmax [1, 9]: 32 ± 9.7 ng/mL
- AUC(0-t) [1, 9]: 134 ± 43.3 ng·h/mL
- half-life [1, 9]: 2.6 ± 0.5 h
- Cmax [1, 10]: 128 ± 17.5 ng/mL
- AUC(0-t) [1, 10]: 576 ± 46.1 ng·h/mL
- half-life [1, 10]: 3.1 ± 0.3 h
- Cmax at 1 day [2, 11]: 67.2 ± 4.7 ng/mL
- half-life at 1 day [2, 11]: 3.2 ± 0.42 h
- Cmax at 7 day [2, 12]: 65 ± 4.7 ng/mL
- half-life at 7 day [2, 12]: 5.1 ± 1.1 h
- half-life at 1 day ([2]; 1.2 mg/kg, male dogs, 7 days of repeat oral X842, Day 1): 2.8 ± 0.2 h
- half-life at 7 day ([2]; 1.2 mg/kg, male dogs, 7 days of repeat oral X842, Day 7): 3.8 ± 0.4 h
- Cmax at 1 day ([2]; 1.2 mg/kg, male dogs, repeat oral X842, Day 1): 82.8 ± 56.5 ng/mL
- Cmax at 7 day ([2]; 1.2 mg/kg, male dogs, repeat oral X842, Day 7): 67.5 ± 23.9 ng/mL
- Cmax [2, 13]: 30.6 ± 6.2 ng/mL
- half-life [2, 13]: 1.6 ± 0.2 h
- Cmax [2, 14]: 10.4 ± 1.4 ng/mL
- half-life [2, 14]: 2.1 ± 0.4 h
- Cmax [2, 15]: 67.2 ± 4.7 ng/mL
- half-life [2, 15]: 3.2 ± 0.42 h
- Cmax [2, 16]: 535 ± 149 ng/mL
- half-life [2, 16]: 2.2 ± 0.9 h
- Cmax [2, 17]: 45.5 ± 21.4 ng/mL
- half-life [2, 17]: 1.5 ± 0.25 h
- Cmax [2, 18]: 15.8 ng/mL
- half-life [2, 18]: 2.2 ± 0.7 h
- Cmax [2, 19]: 82.8 ± 56.5 ng/mL
- half-life [2, 19]: 2.8 ± 0.2 h
- Cmax [2, 20]: 851 ± 116 ng/mL
- half-life [2, 20]: 2.6 ± 0.2 h
- AUC(0-t) ([2]; female, iv, 0.3 mg/kg, female dogs, intravenous X842 0.3 mg/kg, read-out: AUC(0-24h)): 106 ± 13.9 ng·h/mL
- AUC(0-t) ([2]; female, po, 0.3 mg/kg, female dogs, single oral X842 0.3 mg/kg, read-out: AUC(0-24h)): 48.7 ± 7.4 ng·h/mL
- AUC(0-t) ([2]; female, po, 1.2 mg/kg, female dogs, repeat oral X842, Day 1, read-out: AUC(0-24h) Day 1): 412 ± 166 ng·h/mL
- AUC(0-t) ([2]; female, po, 1.2 mg/kg, female dogs, repeat oral X842, Day 7, read-out: AUC(0-24h) Day 7): 508 ± 41.8 ng·h/mL
- AUC(0-t) ([2]; female, po, 1.2 mg/kg, female dogs, single oral X842 1.2 mg/kg, read-out: AUC(0-24h)): 412 ng·h/mL
- AUC(0-t) ([2]; female, po, 4.8 mg/kg, female dogs, single oral X842 4.8 mg/kg, read-out: AUC(0-24h)): 2920 ng·h/mL
- AUC(0-t) ([2]; male, iv, 0.3 mg/kg, male dogs, intravenous X842 0.3 mg/kg, read-out: AUC(0-24h)): 170 ± 26.2 ng·h/mL
- AUC(0-t) ([2]; male, po, 0.3 mg/kg, male dogs, single oral X842 0.3 mg/kg, read-out: AUC(0-24h)): 77.8 ± 66.8 ng·h/mL
- AUC(0-t) ([2]; male, po, 1.2 mg/kg, male dogs, repeat oral X842, Day 1, read-out: AUC(0-24h) Day 1): 436 ± 272 ng·h/mL
- AUC(0-t) ([2]; male, po, 1.2 mg/kg, male dogs, repeat oral X842, Day 7, read-out: AUC(0-24h) Day 7): 439 ± 81.6 ng·h/mL
- AUC(0-t) ([2]; male, po, 1.2 mg/kg, male dogs, single oral X842 1.2 mg/kg, read-out: AUC(0-24h)): 436 ng·h/mL
- AUC(0-t) ([2]; male, po, 4.8 mg/kg, male dogs, single oral X842 4.8 mg/kg, read-out: AUC(0-24h)): 4850 ng·h/mL
